{"source": "patent US20080271210A1", "about": "“Oryza Sativa Lectin-Like Receptor Kinase 1 (Oslrk1), a Gene Involved in Plant Development” (Temasek Life Sciences Laboratory National University of …, priority 2004, published 2008)", "type_in_all_cases": "in vivo, Oryza sativa", "key": {"Oslrk1": {"test_system": "Oslrk1", "experiment": "RT-PCR of Oslrks in treated 2 week-old seedlings", "conditions": "treated vs control", "method": "(§1) RT-PCRs were carried out on RNA samples isolated from 2 week-old seedlings treated with various sugar (FIG. 13), hormone (FIG. 14), and abiotic stresses (FIG. 15) using primers designated to either 3′ or 5′ Untranslated Regions (UTRs) of the 15 Oslrks found in Table 2. For each Oslrk two lanes in the gel are found, the first lane is the control and the second one treatment samples.\n(§2) Table 3 provides a summary of all the above referenced data on the Oslrks, showing the RT-PCR results of various treatments, including sugar, hormone and abiotic stress and northern blot results on various tissues of rice plant grown in normal conditions, and the ESTs, or cDNAs availability in the database. In the table, “I” represents induced expression and “R” represents repressed expression."}, "Oslrk14": {"test_system": "Oslrk14", "experiment": "RT-PCR of Oslrks in treated 2 week-old seedlings", "conditions": "treated vs control", "method": "as §1, §2"}, "Oslrk11": {"test_system": "Oslrk11", "experiment": "RT-PCR of Oslrks in treated 2 week-old seedlings", "conditions": "treated vs control", "method": "as §1, §2"}, "Oslrk4": {"test_system": "Oslrk4", "experiment": "RT-PCR of Oslrks in treated 2 week-old seedlings", "conditions": "treated vs control", "method": "as §1, §2"}, "Oslrk2": {"test_system": "Oslrk2", "experiment": "RT-PCR of Oslrks in treated 2 week-old seedlings", "conditions": "treated vs control", "method": "as §1, §2"}, "Oslrk6": {"test_system": "Oslrk6", "experiment": "RT-PCR of Oslrks in treated 2 week-old seedlings", "conditions": "treated vs control", "method": "as §1, §2"}, "Oslrk12": {"test_system": "Oslrk12", "experiment": "RT-PCR of Oslrks in treated 2 week-old seedlings", "conditions": "treated vs control", "method": "as §1, §2"}, "Oslrk5": {"test_system": "Oslrk5", "experiment": "RT-PCR of Oslrks in treated 2 week-old seedlings", "conditions": "treated vs control", "method": "as §1, §2"}, "Oslrk8": {"test_system": "Oslrk8", "experiment": "RT-PCR of Oslrks in treated 2 week-old seedlings", "conditions": "treated vs control", "method": "as §1, §2"}, "Oslrk10": {"test_system": "Oslrk10", "experiment": "RT-PCR of Oslrks in treated 2 week-old seedlings", "conditions": "treated vs control", "method": "as §1, §2"}, "Oslrk1 gene [1]": {"test_system": "Oslrk1 gene", "experiment": "Northern-blot of Oslrk1 transcript in WT seedlings treated with hormones and SA", "conditions": "100 uM, 24 hours, WT seedlings", "source_text": "Differential Regulation of Oslrk1 Gene Expression by Hormones. Receptor-like kinases were postulated to be involved in signal transduction events as they perceive a signal via a ligand-binding extracellular domain and transmit it through the serine/threonine kinase domain into the cytosol (Shiu and Bleecker, 2001). In order to know possible factors influencing the Oslrk1 gene regulation, we analyzed promoter of the Oslrk1 (1.5 kb) for the presence of cis-acting elements using the program PlantCARE (Lescot et al., 2002). Three TGAGC motifs observed in MeJA inducible genes were found in promoter of the Oslrk1 at the positions −186, −657 and −1190. Apart from these, three GA3 inducible motifs (P-box-CCTTxt) −101, −206 and −740 bp upstream of the Oslrk1 ORF were located. In addition, five salicylic acid inducible motifs (TCA-elementcAGAAa/ga) at the positions of −321, −601, −604, −855 and −1135 were detected. The presence of MeJA, GA and SA responsive cis-elements in the Oslrk1 promoter indicated possible regulatory roles of these factors. The promoter analysis led us to study the effect of different hormones and compounds on the Oslrk1 transcription. The WT seeds were germinated for […] then seedlings were transferred to the medium containing one of the following chemicals: […], MeJA, GA3 or ABA at concentration 100 uM and SA (5 mM) for 24 hours (Materials and Methods). The total RNA isolated from the untreated and treated seedlings were used in Northern-blot hybridization using 3′ UTR of the Oslrk1 gene as a probe. The treatment with GA3 and SA repressed the Oslrk1 gene expression (FIG. 8A) by 2.5 and 3.3 times respectively. […] In order to confirm the level of induction of the Oslrk1 gene by MeJA over time, in another series of experiments, a time course was performed after hormone treatment. Seven day old seedlings were sprayed with 100 uM of MeJA solution and they were harvested in 1, 2, 4, 6, 8, and 12 hours.\nRNA Isolation and Northern-blot Analysis. RNA was isolated from different organs of rice plant at different developmental stages (roots of 10-14 days old seedlings and 2 months old plants, 10-14 days old seedlings, young and mature leaves, panicles at the flowering stage and calli) using a RNeasy Plant mini kit (Qiagen,). The RNA (10 ug) was fractionated on a 1.2% denaturating formaldehyde agarose gel and transferred onto a Hybond-N^+ membrane (Amersham). The bolts were hybridized with dogoxigenin (DIG)-labeled probes in DIG Easy Hyb solution (Roche) at 50° C. After hybridization, membranes were washed twice with 2×SSC and 0.1% SDS for 15 min, then twice with 0.5×SSC and 0.1% SDS for 15 min at 68° C. Detection was carried out according to manufacturer using DIG Wash and Block Buffer set and chemiluminescent substrate CDP Star™ (Roche). DIG-labelled probe corresponded to 3′UTR and lectin domain of Oslrk1 was used. For the control of RNA quantity, DIG-probe corresponding to rice Actin1 gene was synthesized using the following primers: […]\n(§3) The RT-PCRs and Northern blots were repeated at least thrice and similar results were obtained. The quantification of the intensity of the hybridization signals was performed using Quantity ONE 4.5.0 software in Gel doc XR documentation system (Bio-Rad Laboratories, Inc., USA). The level of actual expression was calculated as a ratio of intensity of specific signal (Oslrk1 3′UTR probe) to the intensity of signal of positive control (rice Act1).\nTreatment of WT Seedlings with Hormones and Sugars. Two week old WT seedlings were transferred to MS medium containing 100 μM of different hormones, such as Indole 3-Acetic Acid (IAA), Abscisic acid (ABA), Methyl Jasmonate (MeJA), or Gibbrellic Acid (GA3) and 5 mM of Salicylic Acid (SA), and were grown for 24 hours under normal day/light conditions. Total RNA was extracted from root of the seedlings and whole seedlings. […]"}, "Oslrk1 gene [2]": {"test_system": "Oslrk1 gene", "experiment": "Northern-blot of Oslrk1 transcript in WT seedlings treated with sugars", "conditions": "sugars 175 mM, 48 hours, Mannitol as osmotic control", "method": "Lectins are known as carbohydrate-binding proteins that specifically recognize diverse sugar structures (Vijayan and Chandra, 1999). […] Five different sugars: glucose (Glu), sucrose (Suc), fructose (Fm), Gal and Man were used for this study along with Mannitol as an osmotic control (Methods). Northern-blot hybridizations were carried out on the total RNA isolated from treated seedlings.\nRNA Isolation and Northern-blot Analysis. RNA was isolated from different organs of rice plant at different developmental stages (roots of 10-14 days old seedlings and 2 months old plants, 10-14 days old seedlings, young and mature leaves, panicles at the flowering stage and calli) using a RNeasy Plant mini kit (Qiagen,). […] For the control of RNA quantity, DIG-probe corresponding to rice Actin1 gene was synthesized using the following primers: […]\nas §3, with “Act1). […]” for “Act1).”"}, "[3]": {"test_system": "Oslrk1 mutant seeds and seedlings", "experiment": "Germination and growth of Oslrk1 mutant seeds in galactose/mannose containing media", "source_text": "(§4) The altered expression of the Oslrk1 by different sugars described above led us to study the response of the mutant to these monosaccharides and sucrose. The WT and the mutant seeds were germinated and grown in Gal, Man, Glu, Fm along with Suc at different concentrations (ranging from 0.1% to 1%) and Suc alone containing medium as a control. The following parameters were taken into account during observation: the shoot length, the number and the length of adventitious roots and the germination rate. […] Out of these three sugars tested, Man was selected as an example as its inhibitory effect was similar in seeds and seedlings of WT and mutant as shown in FIGS. 10A and B. The seed germination was severely affected by Man.\n(§5) At 1.0% of the Gal, the shoot length decreased by half in the mutant, whereas only by 15% in the WT seedlings. […] Apart from this, the germination rate of the WT seeds dropped to 85% whereas in the mutant it dropped to 30%.\n(§6) Germination of WT and mutant seeds in galactose/mannose containing media. WT and mutant seeds were germinated separately on MS medium containing 0.8% agar and 1% sucrose. In addition, D(+)galactose/D(+/−)mannose was added in different concentrations (0.1, 0.2, 0.5, and 1.0%) along with a control (MS with 1% of sucrose). At 14 days after germination, the observations for adventitious root number and length (cm), shoot length (cm) and germination rate (%) were recorded."}, "WT seeds and seedlings": {"test_system": "WT seeds and seedlings", "experiment": "Germination and growth of WT seeds in galactose/mannose containing media", "source_text": "as §4, §5, §6"}, "Oslrk9": {"test_system": "Oslrk9", "experiment": "RT-PCR of Oslrks in treated 2 week-old seedlings", "conditions": "treated vs control", "method": "as §1, §2"}, "Oslrk15": {"test_system": "Oslrk15", "experiment": "RT-PCR of Oslrks in treated 2 week-old seedlings", "conditions": "treated vs control", "method": "as §1, §2"}}, "data": [{"compound": "CC1=CC(=O)CC(C)(C)[C@@]1(O)/C=C/C(C)=C\\C(=O)O", "note": "[ABA, Abscisic acid]", "values": [{"measurement": "Oslrk1 expression by RT-PCR, Sh", "setting": "Oslrk1", "value": "R"}, {"measurement": "Oslrk14 expression by RT-PCR, Sh", "setting": "Oslrk14", "value": "I"}, {"measurement": "Oslrk11 expression by RT-PCR, Sh", "setting": "Oslrk11", "value": "I"}, {"measurement": "Oslrk4 expression by RT-PCR, Rt", "setting": "Oslrk4", "value": "I"}, {"measurement": "Oslrk4 expression by RT-PCR, Sh", "setting": "Oslrk4", "value": "I"}, {"measurement": "Oslrk2 expression by RT-PCR, Rt", "setting": "Oslrk2", "value": "I"}, {"measurement": "Oslrk2 expression by RT-PCR, Sh", "setting": "Oslrk2", "value": "I"}, {"measurement": "Oslrk6 expression by RT-PCR, Sh", "setting": "Oslrk6", "value": "R"}, {"measurement": "Oslrk12 expression by RT-PCR, Sh", "setting": "Oslrk12", "value": "I"}, {"measurement": "Oslrk5 expression by RT-PCR, Rt", "setting": "Oslrk5", "value": "I"}, {"measurement": "Oslrk5 expression by RT-PCR, Sh", "setting": "Oslrk5", "value": "I"}, {"measurement": "Oslrk8 expression by RT-PCR, Sh", "setting": "Oslrk8", "value": "I"}, {"measurement": "Oslrk10 expression by RT-PCR, Rt", "setting": "Oslrk10", "value": "R"}, {"measurement": "effect on Oslrk1 transcription", "setting": "Oslrk1 gene [1]", "value": "no significant effect"}]}, {"compound": "O=C[C@H](O)[C@@H](O)[C@@H](O)[C@H](O)CO", "note": "[Gal, galactose]", "values": [{"measurement": "Oslrk1 expression in response to sugars", "setting": "Oslrk1 gene [2]", "value": "Repression"}, {"measurement": "length of adventitious roots", "setting": "[3]; Oslrk1 mutant, 1.0% Gal", "value": "severe reduction"}, {"measurement": "number of the adventitious roots reduced by", "setting": "[3]; Oslrk1 mutant, 1.0% Gal", "value": 85, "unit": "%"}, {"measurement": "shoot length decreased by", "setting": "[3]; Oslrk1 mutant, 1.0% Gal", "value": "half"}, {"measurement": "germination rate", "setting": "[3]; Oslrk1 mutant, Gal (1.0%)", "value": 30, "unit": "%"}, {"measurement": "behavior of the mutant compared with the WT upon treatment", "setting": "[3]; sugar 0.1% to 1% along with Suc", "value": "differential response"}, {"measurement": "length of adventitious roots", "setting": "WT seeds and seedlings; 1.0% Gal", "value": "reduced"}, {"measurement": "number of the adventitious roots", "setting": "WT seeds and seedlings; 1.0% Gal", "value": "more or less same"}, {"measurement": "shoot length decreased by", "setting": "WT seeds and seedlings; 1.0% Gal", "value": 15, "unit": "%"}, {"measurement": "germination rate", "setting": "WT seeds and seedlings; Gal (1.0%)", "value": 85, "unit": "%"}, {"measurement": "Oslrk14 expression by RT-PCR, Sh", "setting": "Oslrk14", "value": "I"}, {"measurement": "Oslrk11 expression by RT-PCR, Rt", "setting": "Oslrk11; Rt", "value": "I"}, {"measurement": "Oslrk11 expression by RT-PCR, Sh", "setting": "Oslrk11", "value": "R"}, {"measurement": "Oslrk9 expression by RT-PCR, Sh", "setting": "Oslrk9", "value": "I"}, {"measurement": "Oslrk4 expression by RT-PCR, Sh", "setting": "Oslrk4", "value": "I"}, {"measurement": "Oslrk2 expression by RT-PCR, Rt", "setting": "Oslrk2", "value": "I"}, {"measurement": "Oslrk2 expression by RT-PCR, Sh", "setting": "Oslrk2", "value": "R"}, {"measurement": "Oslrk5 expression by RT-PCR, Rt", "setting": "Oslrk5", "value": "I"}, {"measurement": "Oslrk5 expression by RT-PCR, Sh", "setting": "Oslrk5", "value": "I"}, {"measurement": "Oslrk8 expression by RT-PCR, Sh", "setting": "Oslrk8", "value": "I"}, {"measurement": "Oslrk10 expression by RT-PCR, Sh", "setting": "Oslrk10; Sh", "value": "I"}]}, {"compound": "O=C(O)Cc1c[nH]c2ccccc12", "note": "[IAA, Indole 3-Acetic Acid]", "values": [{"measurement": "Oslrk15 expression by RT-PCR, Rt", "setting": "Oslrk15", "value": "I"}, {"measurement": "Oslrk4 expression by RT-PCR, Rt", "setting": "Oslrk4", "value": "I"}, {"measurement": "Oslrk5 expression by RT-PCR, Rt", "setting": "Oslrk5", "value": "I"}, {"measurement": "Oslrk8 expression by RT-PCR, Rt", "setting": "Oslrk8; Rt", "value": "I"}, {"measurement": "Oslrk10 expression by RT-PCR, Rt", "setting": "Oslrk10", "value": "I"}, {"measurement": "effect on Oslrk1 transcription", "setting": "Oslrk1 gene [1]", "value": "no significant effect"}]}]}
